Laboratory results: US20180267019A1, “USE OF PEPTIDE HYDROGEL SCAFFOLDS FOR THREE-DIMENSIONAL THROUGHPUT DRUG DISCOVERY” (UNIVERSITY OF DELAWARE, priority 2015, published 2018)

How the values were obtained:
[1] = test system: human medulloblastoma cells; test: RealTime-Glo cell viability of medulloblastoma cells encapsulated in MAX8 hydrogel-cell constructs; type: cell-based
Protocol: (§1) Human medulloblastoma cells were propagated in Dulbecco's […] Media (DMEM) supplemented with 10% fetal bovine serum and penicillin-streptomycin-glutamine at 37° C. and 5% CO2 using standard 2D cell culture protocols and tissue-culture treated plastic cell ware. For isolation of primary cerebellar granule precursor (CGP) cells, the cerebellum was dissected from P4-6 pups of C57BL/6 mice and dissociated into single cells using the Papain Dissociation System kit (Worthington Biochemical Corp, Freehold, N.J.). After filtering through a nylon mesh (70 μm pore size), the cells were briefly centrifuged and resuspended in Neurobasal medium supplemented with […] and B27.
In general and unless otherwise indicated, MAX8-cell constructs were prepared as 0.25 wt % MAX8 hydrogels. First, the peptide was dissolved in 50 mM HEPES buffer (pH 7.4) ([…] of hydrogel) and then an equal volume of single cell suspension in DMEM was added and gently mixed. Mixing the MAX8 solution with the culture medium triggers the intramolecular folding of the peptide, resulting in self-assembly into a hydrogel. For additional hydrogels with different concentrations of MAX8, the amount of peptide was adjusted but otherwise the same hydrogel assembly protocol was followed. The same procedures were followed when functionalized MAX8 was used to prepare hydrogel-cell constructs.
(§2) Unless noted otherwise, cell viability assays were performed in 384-well plates using the RealTime-Glo™ MT Cell Viability Assay from Promega. For each experiment two stock solutions were prepared. For the first solution, 50 mM HEPES (pH 7.4) buffer was mixed with 0.5 wt % MAX8 (5 mg MAX8 per mL buffer solution for a final 0.25 wt % MAX8 hydrogel construct). The second solution was a cell solution with 11×10^6 per mL of medulloblastoma cells in serum-free DMEM. The two stock solutions were thoroughly mixed 1:1 to create a cell/gel mixture and 4 μL of the mixture was added per well to a white 384 well assay plate (Corning) containing 41 μL culture medium per well. The cells were allowed to equilibrate for 24 hours before any luminescence was determined. 10× RealTime-Glo was added in 5 μL of media to each well already containing 45 μL to a final concentration of 1×. For cell viability assays in 96-well plates, the following volumes were used. 74 μL of DMEM cell media containing serum was added to each well, 16 μL of the previously mentioned 0.25 wt % MAX8 cell/gel construct was then added to each well. 10 μL of 10× RealTime-Glo was added to the wells for a final concentration of 1×. The plate was incubated for 60 minutes at 37 C and the luminescence was measured using an Envision Multilevel Reader (Perkin Elmer).

medulloblastoma cells [2] = test: DMSO tolerance of medulloblastoma cells in hydrogel-cell constructs, 384-well plate; type: cell-based, human
Protocol: as §2, with “10× RealTime-Glo was added in 5 μL of media to each well already containing 45 μL to a final concentration of 1×. For cell viability assays in 96-well plates, the following volumes were used. 74 μL of DMEM cell media containing serum was added to each well, 16 μL of the previously mentioned 0.25 wt % MAX8 cell/gel construct was then added to each well. 10 μL of 10× RealTime-Glo was added to the wells for a final concentration of 1×.” left out
Owing to its unique shear force properties, MAX8-medulloblastoma cell constructs were dispensed at room temperature into 384-well plates (2,000 cells in 4 μL of hydrogel) (Brandtech) with 50 μL of culture medium (DMEM with serum) using a BioTek microplate dispenser. […] 10 μL of the intermediate drug media was then added to the QC plates, and following 48 h of cell culture the cell viability was measured using RealTime-Glo and the previously described method.

medulloblastoma cells [3] = test: Treatment of MAX8-RGDS-encapsulated medulloblastoma cells and 2D monolayers with vismodegib, cell viability; type: cell-based, human; settings: MAX8-RGDS 3D constructs vs 2D monolayers, 48 hours, FIG. 3B
Protocol: Vismodegib was added into the surrounding tissue culture medium of MAX8 hydrogel-cell constructs after 24 hours of cell seeding at the indicated concentrations. To limit the exposure of cultured cells to dimethyl sulfoxide (DMSO) from stock solutions of test compounds, 3.5 μL of stock solution was diluted in 1 mL of culture medium and then 20 μL of this solution was added to each well using the Janus workstation (PerkinElmer). Following 48 hours of cell culture the cell viability was measured as previously described using RealTime-Glo with a final concentration of 1×.

[4] = Hydrogel material properties (oscillatory rheology, gelation); type: physicochemical
Protocol: Rheology measurements were performed on an AR G2 rheometer (TA instruments) with a 20 mm stainless steel parallel plate geometry. […] Dynamic time sweep experiments (DTS) were performed to monitor the storage (G′) and loss (G″) modulus as a function of time (6 rad/s frequency, 0.2% strain) for 60 min. For shear-thinning experiments, the samples were subjected to 500 s^−1 steady-state shear for 60 s after which oscillatory measurement was performed at 6 rad/s frequency, 0.2% strain. Subsequently, recovery of the storage (G′) and loss (G″) modulus as a function of time was monitored for 30 min. Dynamic frequency (0.1-100 rad/s frequency, 1.0% strain) sweep experiments were performed to establish the frequency response of the samples. All measurements were performed in triplicates.

[5] = test system: primary cerebellar granule precursors (CGPs); test: RealTime-Glo cell viability of primary cerebellar granule precursor cells encapsulated in MAX8; type: cell-based, C57BL/6 mice; settings: 0.5 wt % MAX8, RealTime-Glo, FIG. 2B
Protocol: as §1
In general and unless otherwise indicated, MAX8-cell constructs were prepared as 0.25 wt % MAX8 hydrogels. First, the peptide was dissolved in 50 mM HEPES buffer (pH 7.4) ([…] of hydrogel) and then an equal volume of single cell suspension in DMEM was added and gently mixed. […]
Unless noted otherwise, cell viability assays were performed in 384-well plates using the RealTime-Glo™ MT Cell Viability Assay from Promega. […] The cells were allowed to equilibrate for 24 hours before any luminescence was determined. […] The plate was incubated for 60 minutes at 37 C and the luminescence was measured using an Envision Multilevel Reader (Perkin Elmer).

[6] = 0.5 wt % hydrogel, RealTime-Glo, FIG. 2C

Question: For “YIGSRVKVKVKVK-(V^DPPT)-KVEVKVKV-NH2 [MAX8-YIGSR]”, which “proliferation of medulloblastoma cells when compared to MAX8” value [1, 6] is on record?
Answer: The value was “increased the proliferation”.

Question: For “RGDSVKVKVKVK-(V^DPPT)-KVEVKVKV-NH2 [MAX8-RGDS]”, which “proliferation of medulloblastoma cells encapsulated in cell constructs, over native MAX8” value [1, 6] is on record?
Answer: Its value is 1.4 fold.

Question: Which “proliferation of medulloblastoma cells when compared to MAX8” value [1, 6] does the source give for “IKVAVVKVKVKVK-(V^DPPT)-KVEVKVKV-NH2 [MAX8-IKVAV]” here?
Answer: Its value is “increased the proliferation”.

Question: Which “DMSO concentration at which medulloblastoma cells were viable” value (medulloblastoma cells [2]) does the source give for `C[S+](C)[O-]` [DMSO, dimethyl sulfoxide] here?
Answer: Its value is “up to 1%”.

Question: Which “sensitivity (dose response of cell viability), monolayers vs hydrogel cultures” value (medulloblastoma cells [3]) does the source give for `CS(=O)(=O)c1ccc(C(=O)Nc2ccc(Cl)c(-c3ccccn3)c2)c(Cl)c1` [vismodegib] here?
Answer: Its value is “shift in dose response curves between monolayers and hydrogel cultures”.

Question: For VKVKVKVK-(V^DPPT)-KVEVKVKV-NH2 [MAX8], which “stiffness of the hydrogel” value ([4]; controllable by weight percent of the peptide) is on record?
Answer: Its value is “around 1000 Pa”.

Question: What about the gelation time ([4]; room temperature, physiological salt concentration and pH) of the same compound?
Answer: Its gelation time is “gelates within a minute”.

Question: What about the “viability of primary CGPs within MAX8-cell constructs” value [5] of the same compound?
Answer: The value was “viable for several days”.

Question: And the “viability of medulloblastoma cells within MAX8-cell constructs” value ([1]; 0.25 or 0.5 wt % MAX8, RealTime-Glo, FIG. 2A)?
Answer: Its value is “viable for several days”.

Question: And the “cell proliferation as a function of MAX8 concentration” value ([1]; 0.25 vs 0.5 wt % MAX8, FIG. 2A)?
Answer: Its value is “cell proliferation decreased with increasing MAX8 concentrations”.
